Results from PMC9814550, “Exo-selective intermolecular Diels–Alder reaction by PyrI4 and AbnU on non-natural substrates” (Communications Chemistry, 2021).
Read-outs that look alike come from different tables or passages of the source.

Key:
PyrI4 = target: T1, PyrI4 (Streptomyces rugosporus, UniProt K7QVW7, E65A); test: LC-SRM of product 3a; format: biochemical; conditions: co-substrate 2
T1 construct: full length, N-terminal poly-His tag, pET28a(+), codon-optimised synthetic gene, E. coli

AbnU = target: T2, AbnU (Parafrankia colletiae, UniProt A0A1S1R073); test: tryptophan fluorescence quenching (W114); format: binding
T2 construct: gene CC117_14200; N-terminal poly-His tag, pET28a(+), codon-optimised synthetic gene, E. coli; dimer
T2 sequence (A0A1S1R073 entry or part of it): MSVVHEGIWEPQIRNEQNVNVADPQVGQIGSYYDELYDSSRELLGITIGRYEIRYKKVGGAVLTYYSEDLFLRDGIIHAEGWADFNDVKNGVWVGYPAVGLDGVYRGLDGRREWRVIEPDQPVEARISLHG

T1 sequence (K7QVW7 whole entry E65A): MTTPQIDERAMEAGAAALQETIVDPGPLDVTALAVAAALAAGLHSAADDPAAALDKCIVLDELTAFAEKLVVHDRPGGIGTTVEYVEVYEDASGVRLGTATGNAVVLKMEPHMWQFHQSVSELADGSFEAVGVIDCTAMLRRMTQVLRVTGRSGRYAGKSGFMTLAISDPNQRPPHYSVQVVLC

C=C/C=C/NC(=O)OCc1ccc(C(=O)OC)cc1 [1a, diene 1a] was tested, and the “LC-SRM of product 3a” value (PyrI4) was “Stereoselectivity is further compromised with E65A mutant” and the Kd (AbnU; read-out: KD) was 0.729 ± 0.117 mM.

In the case of C=CC(=O)N(C)C [compound 2, N,N-dimethylacrylamide], the Kd (AbnU) is reported as 6.32 ± 0.28 mM.

For COC(=O)c1ccc(COC(=O)NC2C=CCCC2C(=O)N(C)C)cc1 (mixture of isomers) [3a], the Kd (AbnU; read-out: KD) was 1.01 ± 0.205 mM.
